{
  "source": "patent US20260373132A1",
  "about": "“PERK INHIBITORHC-5404 IN COMBINATION WITH ANTI-PD-1 ANTIBODY AND/OR AN ANTIANGIOGENETIC AGENT FOR USE IN THE TREATMENT OF CANCER” (HIBERCELL, INC., priority 2022, published 2026)",
  "key": {"BLK": {"target": "BLK (Homo sapiens, UniProt P51451)", "sequence (P51451 whole entry, canonical isoform)": "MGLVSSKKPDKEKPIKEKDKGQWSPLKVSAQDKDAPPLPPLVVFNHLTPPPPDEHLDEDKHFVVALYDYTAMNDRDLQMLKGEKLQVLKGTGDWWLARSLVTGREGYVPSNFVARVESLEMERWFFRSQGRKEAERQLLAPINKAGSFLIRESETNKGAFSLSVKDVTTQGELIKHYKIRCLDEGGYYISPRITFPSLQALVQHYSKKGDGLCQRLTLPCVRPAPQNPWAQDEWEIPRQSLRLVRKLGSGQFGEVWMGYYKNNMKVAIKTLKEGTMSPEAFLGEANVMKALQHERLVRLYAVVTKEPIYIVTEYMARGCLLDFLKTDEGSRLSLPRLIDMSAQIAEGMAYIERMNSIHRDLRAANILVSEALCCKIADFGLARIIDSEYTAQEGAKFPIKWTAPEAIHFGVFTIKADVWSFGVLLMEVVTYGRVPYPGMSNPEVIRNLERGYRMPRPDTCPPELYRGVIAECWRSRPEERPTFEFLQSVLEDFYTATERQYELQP", "experiment": "KINOMEScan biochemical panel assay, BLK", "assay_type": "binding", "conditions": "1000 nM", "protocol": "The selectivity of HC-5404 against the broader kinome was then evaluated using a KINOMEScan biochemical panel assay that measured binding against 468 unique kinases, including 403 wild-type human kinases and 59 mutant isoforms."}, "[1]": {"test_system": "Capan-2 pancreatic tumor xenografts", "experiment": "CAPAN-2 pancreatic xenograft tumor growth", "assay_type": "in vivo, mouse", "conditions": "for TGI: 48 days"}, "[2]": {"test_system": "ASNS, CBS and CTH in 786-O tumors", "experiment": "ASNS, CBS and CTH in 786-O tumors", "assay_type": "in vivo, mouse", "conditions": "HC-5404 treatment (FIG. 29)", "protocol": "(§1) Samples were put in 500 μL of Novex lysis buffer consisting of 2× Novex Tris-Glycine SDS sample buffer (ThermoFisher LC2676), 1× Phosphatase Inhibitor Cocktail III (Sigma P0044), 1× PhosphataseArrest I (Gbioscience 113P-D), 1×2-mercaptoethanol (Gibco 21985023), 1× Benzonase (EMD Millipore Corp 70746-3), and 1× Protease inhibitor cocktail tablet (Roche/Sigma 11836170001). Samples were homogenized with the Polytron and heated for 10 min at 95 °C. They were then centrifuged at max speed for 10 min and the supernatant was transferred. Protein concentrations of samples were measured using the Pierce 660 nm Protein assay kit (Thermo Scientific 22660) according to the manufacturer's instructions.\n(§2) Western Blot analysis was performed on the SimpleWestern high-throughput protein analysis platform (ProteinSimple 004-650) according to manufacturer's protocol using a 12-230 kDA Separation Module (ProteinSimple SM-W004) and Total Protein Detection Module (ProteinSimple DM-TP01). Antibodies used were: (Add info for other antibodies used) pPERK (Lilly; 1:50) and PERK (Cell Signaling Technology 5683; 1:200). All protein analytes were normalized to total protein loaded on capillary.\nThe effect of HC-5404 was further validated in tumors by assessing the response of markers of in vivo PERK inhibition. […]"}, "pPERK in A498 tumors": {"test_system": "pPERK in A498 tumors", "experiment": "pPERK in A498 tumor xenografts", "assay_type": "in vivo, mouse", "protocol": "as §1\nas §2, with “capillary. […]” for “capillary.”"}, "[3]": {"test_system": "myeloid, lymphoid and tumor cells in MB49 model", "experiment": "flow cytometry of tumor, lymph node and blood cells in MB49 model", "assay_type": "in vivo, mouse", "conditions": "10, 30 mg/kg (FIG. 8)", "protocol": "C57BL/6 mice were subcutaneously inoculated with MB49 cells, and treatment started on day 8 post cell inoculation. A group of animals (n=10/group) received either vehicle, HC-5404 (PO, BID) (3 mg/kg, 10 mg/kg, or 30 mg/kg), 5 mg/kg anti-PD-1 antibody (aPD-1) (RMP1-14) (IP, BIW), or the combination of both. At various timepoints, animals were sacrificed, and flow cytometry was performed on blood or single cell suspensions from tumors or lymph nodes (n=6).\nTumor tissue samples were obtained 7 days post treatment (14 days post inoculation). Single cells were prepared by enzymatic digestion of tumor tissues and subsequently analyzed by flow cytometry on a Cytek Aurora. Expression of IFNAR1 (A) and PD-L1 (B) on the myeloid populations and tumors were shown.\nSurface calreticulin was analyzed by flow cytometry on MB49 tumor cells d7 post treatment.\nSingle cell suspensions were washed in PBS twice and then stained with the LIVE/DEAD fixable blue dead cell stain (Invitrogen cat #L23105) at 1:3000 dilution for 30 minutes at 4 °C. […]\nLN cells from day 14 post treatment samples were analyzed by flow cytometry. […]\nWhole blood was collected on the indicated date post treatment in a MB49 model. IFNAR1 expression was determined by flow cytometry and gated on CD14+ monocytes […]"}, "[4]": {"test_system": "pro-angiogenic cytokines in mouse plasma", "experiment": "plasma pro-angiogenic cytokines, mice bearing 786-O tumors", "assay_type": "in vivo", "protocol": "Mouse plasma sampled following 7 days of treatment with HC-5404 (30 mpk, PO, BID) and cabozantinib (30 mpk, PO, QD). Multiple cytokines associated with angiogenesis were quantified by Illumina multiplex.\nPlasma analysis from mice bearing 786-O tumors, treated with HC-5404 at 3, 10, or 30 mg/kg (PO; BID) as a single agent or in combination with cabozantinib (30 mg/kg; PO; QD). Multiple cytokines associated with angiogenesis were quantified by Illumina multiplex (FIG. 86, FIG. 87, FIG. 88, FIG. 89, FIG. 90)."}},
  "data": [
    {"smiles": "Cc1cc(NC(=O)[C@H](O)c2cc(F)cc(F)c2)ccc1-c1cnc(N)c(C(=O)NC(C)C)c1", "note": "[HC-5404, (R)-2-amino-5-(4-(2-(3,5-difluorophenyl)-2-hydroxyacetamido)-2-methylphenyl)-N-isopropylnicotinamide]", "values": [
      {"measurement": "inhibition of BLK", "setting": "BLK", "result": "inhibited"},
      {"measurement": "TGI", "setting": "[1]; 30 mg/kg PO BID", "result": 50, "unit": "%"},
      {"measurement": "TGI", "setting": "[1]; 100 mg/kg PO BID", "result": 43, "unit": "%"},
      {"measurement": "difference between dose levels in TGI", "setting": "[1]; 30 vs 100 mg/kg BID", "result": "No difference between the dose levels"},
      {"measurement": "accumulation of ASNS, CBS and CTH", "setting": "[2]", "result": "dose-dependent accumulation of ASNS, CBS and CTH"},
      {"measurement": "pPERK expression in A498", "setting": "pPERK in A498 tumors; 30 mg/kg PO BID, seven days (FIG. 30)", "result": "strongly inhibited pPERK expression"},
      {"measurement": "pPERK levels in A498", "setting": "pPERK in A498 tumors; DC-101 study, 4 days of treatment (FIG. 37)", "result": "inhibited the pPERK signal"},
      {"measurement": "effect on IFNAR1 on monocytes in peripheral blood", "setting": "[3]", "result": "also detected on monocytes in peripheral blood"},
      {"measurement": "VEGF-A in plasma", "setting": "[4]; 3, 10, 30 mg/kg PO BID (FIG. 86)", "result": "decreased in plasma by HC-5404 as a single agent in a dose-dependent fashion"},
      {"measurement": "LYVE-1 in plasma", "setting": "[4]; 3, 10, 30 mg/kg PO BID, alone or with cabozantinib (FIG. 89)", "result": "decreased by HC-5404 in a dose-dependent manner"},
      {"measurement": "Syndecan in plasma", "setting": "[4]; 3, 10, 30 mg/kg PO BID, alone or with cabozantinib (FIG. 90)", "result": "decreased by HC-5404 as monotherapy"}
    ]}
  ]
}
